Measurements taken from ChEMBL document CHEMBL4513161, “CO-ADD screening of MMV (CH) - Pandemic Response Box” (2021).
≈ marks a conversion by molar mass, not a printed value.

How the values were obtained:
Acinetobacter baumannii = experiment: microbe, parasite or virus in culture; settings: ATCC 19606, 18 h, ASSAY_TEST Inhibition of Bacterial Growth, detection method Absorption (OD600), MEDIA CAMHB, plate type 384well, NBS, CORNING #3640
Description: Antibacterial activity against Acinetobacter baumannii ATCC 19606 (CO-ADD:GN_034); MIC in CAMBH media using NBS plates, by OD600

Escherichia coli = experiment: microbe, parasite or virus in culture; settings: ATCC 25922, 18 h, ASSAY_TEST Inhibition of Bacterial Growth, detection method Absorption (OD600), MEDIA CAMHB, plate type 384well, NBS, CORNING #3640
Description: Antibacterial activity against Escherichia coli ATCC 25922 (CO-ADD:GN_001); MIC in CAMBH media using NBS plates, by OD(600)

Pseudomonas aeruginosa [1] = experiment: microbe, parasite or virus in culture; settings: ATCC 27853, 18 h, ASSAY_TEST Inhibition of Bacterial Growth, detection method Absorption (OD600), MEDIA CAMHB, plate type 384well, NBS, CORNING #3640
Description: Antibacterial activity against Pseudomonas aeruginosa ATCC 27853 (CO-ADD:GN_042); MIC in CAMBH media using NBS plates, by OD(600)

Pseudomonas aeruginosa [2] = experiment: Antibacterial activity against Pseudomonas aeruginosa PAO397 [PAO1 d(mexAB-oprM) d(mexCD-oprJ) d(mexEF-oprN) d(mexJKL) d(mexXY) d(opmH)] (CO-ADD:GN_211); MIC in CAMBH media using NBS plates, by OD(600); format: functional; settings: ASSAY_TEST Inhibition of Bacterial Growth, detection method Absorption (OD600), MEDIA CAMHB, plate type 384well, CORNING #3640, time 18 hr
Staphylococcus aureus = experiment: microbe, parasite or virus in culture; settings: ATCC 43300, 18 h, ASSAY_TEST Inhibition of Bacterial Growth, detection method Absorption (OD600), MEDIA CAMHB, plate type 384well, NBS, CORNING #3640
Description: Antibacterial activity against Staphylococcus aureus MRSA ATCC 43300 (CO-ADD:GP_020); MIC in CAMBH media, using NBS plates, by OD(600)

Candida albicans = experiment: microbe, parasite or virus in culture; settings: ATCC 90028, ASSAY_TEST Inhibition of Fungal Growth, detection method Absorption (OD530), plate type 384well, NBS, CORNING #3640
Description: Antifungal activity against Candida albicans ATCC 90028 (CO-ADD:FG_001); MIC in YNB media using NBS plates, by OD630

Klebsiella pneumoniae = experiment: microbe, parasite or virus in culture; settings: ATCC 700603, 18 h, ASSAY_TEST Inhibition of Bacterial Growth, detection method Absorption (OD600), MEDIA CAMHB, plate type 384well, NBS, CORNING #3640
Description: Antibacterial activity against Klebsiella pneumoniae MDR ATCC 70063 (CO-ADD:GN_003); MIC in CAMBH media using NBS plates, by OD(600)

HEK293 = experiment: cells; format: functional, Homo sapiens, ATCC CRL1573; settings: Homo sapiens, ATCC CRL1573, HEK293; ASSAY_TEST Inhibition of Cell Viability; detection method Resazurin; Fluorescence (ex560/em590); MEDIA DMEM with 10% FBS; plate type 384well; TC; CORNING #3712; time 18 hr; read-out: CC50

Description for Cryptococcus neoformans: Antifungal activity against Cryptococcus neoformans H99 ATCC 208821 (CO-ADD:FG_002); MIC in YNB media using NBS plates, by Resazurin OD(600-570)

MIC (Acinetobacter baumannii) | MIC (Escherichia coli) | MIC (Pseudomonas aeruginosa [1]) | MIC (Cryptococcus neoformans) | MIC (Pseudomonas aeruginosa [2]) | MIC (Staphylococcus aureus) | MIC (Candida albicans) | MIC (Klebsiella pneumoniae) | Compound | CC50 (HEK293)
> 20 µM | > 20 µM | > 20 µM | > 20 µM | > 20 µM | > 20 µM | > 20 µM | > 20 µM | C[C@@H](O)[C@H](N)C(=O)NS(=O)(=O)c1cccc(-c2ccc3[nH]ncc3c2)c1 | > 20 µM
> 20 µM | > 20 µM | > 20 µM | > 20 µM | 20 µM (≈ 8.52 µg/mL) | > 20 µM | > 20 µM | > 20 µM | O=C(NO)C1(CS(=O)(=O)c2ccc(Oc3ccc(Cl)cc3)cc2)CCOCC1 [CTS-1027] | > 20 µM
> 20 µM | > 20 µM | > 20 µM | > 20 µM | > 20 µM | > 20 µM | > 20 µM | > 20 µM | CCOC(=O)N1CCN(c2ccc(Cl)cc2)CC1 | > 20 µM
> 20 µM | > 20 µM | > 20 µM | > 20 µM | > 20 µM | > 20 µM | > 20 µM | > 20 µM | Cc1ccc(NC(=O)c2cc(Cl)ccc2O)cc1 | 3.91 µM
> 20 µM | > 20 µM | > 20 µM | > 20 µM | > 20 µM | > 20 µM | > 20 µM | > 20 µM | CCOc1ccc(/C=N/NC(=O)C2CC2c2ccc(C(C)(C)C)cc2)cc1OCC (stereo unspecified) | > 20 µM
> 20 µM | > 20 µM | > 20 µM | > 20 µM | > 20 µM | > 20 µM | > 20 µM | > 20 µM | O=C(O)c1cc(-c2ccc(Br)cc2)nc2ccc(Cl)cc12 | > 20 µM
> 20 µM | > 20 µM | > 20 µM | 20 µM (≈ 6.09 µg/mL) | > 20 µM | > 20 µM | > 20 µM | > 20 µM | COc1ccc(NC(=O)CC2Sc3ncnn3C2=O)cc1 (stereo unspecified) | 19.5 µM
> 20 µM | > 20 µM | > 20 µM | > 20 µM | > 20 µM | > 20 µM | > 20 µM | > 20 µM | CC(C)Nc1ncnc2c1cnn2-c1ccc(Cl)cc1 | > 20 µM
> 20 µM | > 20 µM | > 20 µM | > 20 µM | > 20 µM | > 20 µM | > 20 µM | > 20 µM | Nc1nc(O)c(Br)c(-c2cccc(Cl)c2)n1 | > 20 µM
> 20 µM | > 20 µM | > 20 µM | > 20 µM | > 20 µM | 2.5 µM (≈ 0.934 µg/mL) | > 20 µM | > 20 µM | CCc1nc(N)nc(N)c1C#CC(C)c1cc(OC)cc(-c2ccncc2)c1 (stereo unspecified) | 6.39 µM
> 20 µM | > 20 µM | > 20 µM | > 20 µM | > 20 µM | > 20 µM | > 20 µM | > 20 µM | COCCn1cnc2c(O)nc(Nc3ccccc3)nc21 | > 20 µM
> 20 µM | > 20 µM | > 20 µM | > 20 µM | > 20 µM | > 20 µM | > 20 µM | > 20 µM | COc1ccc(NS(=O)(=O)c2ccc(Cl)s2)cn1 | > 20 µM
> 20 µM | > 20 µM | > 20 µM | > 20 µM | > 20 µM | > 20 µM | > 20 µM | > 20 µM | O=C(Nc1nnc(-c2ccc(Cl)cc2)o1)c1nc2ccccc2s1 | > 20 µM
> 20 µM | > 20 µM | > 20 µM | > 20 µM | > 20 µM | > 20 µM | > 20 µM | > 20 µM | CC(C)(C)c1ccc(Oc2ccc(N)cc2)cc1 | > 20 µM
> 20 µM | > 20 µM | > 20 µM | > 20 µM | > 20 µM | > 20 µM | > 20 µM | > 20 µM | C[Si]1(C)CCN(Cc2cc(-c3ccc(Cl)cc3)n(-c3ccc(Cl)cc3)n2)CC1 | > 20 µM
> 20 µM | > 20 µM | > 20 µM | > 20 µM | > 20 µM | > 20 µM | > 20 µM | > 20 µM | CN(C)CCNC(=O)c1cccc2cccnc12 | > 20 µM

Second part, the molecule before the results:

Compound | MIC (Acinetobacter baumannii) | MIC (Escherichia coli) | MIC (Pseudomonas aeruginosa [1]) | MIC (Cryptococcus neoformans) | MIC (Pseudomonas aeruginosa [2]) | MIC (Staphylococcus aureus) | MIC (Candida albicans) | MIC (Klebsiella pneumoniae) | CC50 (HEK293)
CCN(CC)S(=O)(=O)c1ccc(Cl)c(C(=O)Nc2sc3c(c2C#N)CCCC3)c1 | > 20 µM | > 20 µM | > 20 µM | > 20 µM | > 20 µM | > 20 µM | > 20 µM | > 20 µM | > 20 µM
Cn1cncc1[C@@](N)(c1ccc(Cl)cc1)c1ccc2c(c1)c(-c1cccc(Cl)c1)cc(=O)n2C [TIPIFARNIB] | > 20 µM | > 20 µM | > 20 µM | > 20 µM | > 20 µM | 20 µM (≈ 9.79 µg/mL) | > 20 µM | > 20 µM | 8.09 µM
NS(=O)(=O)c1ccc(NC(=O)NC(c2ccccc2)c2ccccc2)cc1 | > 20 µM | > 20 µM | > 20 µM | > 20 µM | > 20 µM | > 20 µM | > 20 µM | > 20 µM | > 20 µM
NCc1ccc(S(N)(=O)=O)cc1 [MAFENIDE] | > 20 µM | > 20 µM | > 20 µM | > 20 µM | > 20 µM | > 20 µM | > 20 µM | > 20 µM | > 20 µM
C[C@H]1[C@@H](c2cccc(C(F)(F)F)c2)OC(=O)N1C(=O)NCc1cncc2ccccc12 | > 20 µM | > 20 µM | > 20 µM | > 20 µM | > 20 µM | > 20 µM | > 20 µM | > 20 µM | > 20 µM
O=C(c1cc(O)nc2ccccc12)N1CCN(c2ccccc2)CC1 | > 20 µM | > 20 µM | > 20 µM | > 20 µM | > 20 µM | > 20 µM | > 20 µM | > 20 µM | > 20 µM
Cc1c(CN(C)C(=O)/C=C/c2cnc3c(c2)C(C)(C)C(=O)N3)oc2ccccc12 | > 20 µM | > 20 µM | > 20 µM | > 20 µM | > 20 µM | 1.25 µM (≈ 0.487 µg/mL) | > 20 µM | > 20 µM | > 20 µM
Cc1[nH]c2ccccc2c1CC(=O)N[C@@H](Cc1ccccc1)C(=O)N(C)c1ccccc1 | > 20 µM | > 20 µM | > 20 µM | > 20 µM | > 20 µM | > 20 µM | > 20 µM | > 20 µM | > 20 µM
C[C@H](NC(=O)C(=O)Nc1ccccc1C(C)(C)C)C(=O)N[C@@H](CC(=O)O)C(=O)COc1c(F)c(F)cc(F)c1F | > 20 µM | > 20 µM | > 20 µM | > 20 µM | > 20 µM | > 20 µM | > 20 µM | > 20 µM | > 20 µM
O=C1C=C(c2ccccc2)S(=O)(=O)c2ccccc21 | > 20 µM | > 20 µM | > 20 µM | 5 µM (≈ 1.35 µg/mL) | > 20 µM | > 20 µM | 5 µM (≈ 1.35 µg/mL) | > 20 µM | 4.03 µM
NC(=O)[C@@H]1CC[C@@H]2CN1C(=O)N2OS(=O)(=O)O | > 20 µM | > 20 µM | > 20 µM | > 20 µM | > 20 µM | > 20 µM | > 20 µM | > 20 µM | > 20 µM
Nc1c(C(=O)NCc2ccco2)c2nc3ccccc3nc2n1CCN1CCCCC1 | > 20 µM | > 20 µM | > 20 µM | > 20 µM | > 20 µM | > 20 µM | > 20 µM | > 20 µM | > 20 µM
COc1cccc(N2CCN(C3=Nc4c(F)cccc4[C@H](CC(=O)O)N3c3cc(C(F)(F)F)ccc3OC)CC2)c1 [LETERMOVIR] | > 20 µM | > 20 µM | > 20 µM | > 20 µM | > 20 µM | > 20 µM | > 20 µM | > 20 µM | > 20 µM
